In patent US20190018003A1, “TUMOR DISCRIMINATION METHOD, DIAGNOSTIC AGENT FOR TUMOR, AND SENSITIZER FOR TUMOR DIAGNOSIS” (TOTO LTD., priority 2017, published 2019):

How the values were obtained:
Format in all cases: cell-based, human
[1] = test system: T24 urinary bladder cancer cells; assay: Fluorescence enhancement in T24 cells by simultaneous administration of fluorescent dye (ALA) and particles; details: Example 8, administration of fluorescent dye only, immediately after observation light irradiation
Procedure: An aqueous ALA solution (50 mmol/l) was mixed into an MEM medium (MEM, GlutaMAX™ supplement (Thermo Fisher Scientific)) to form a 4 mmol/l ALA solution. Further, an aqueous solution of light scattering particles (2) (ii) was mixed into an MEM medium to form light scattering particle solutions of 0.001, 0.002, and 0.02 w/v %.
Evaluation was performed as follows. The medium of the T24 cells on a 6-well plate, obtained in Example 3, was removed by an aspirator, and thereto was added 2 ml of PBS (−) (Thermo Fisher Scientific). Once again, PBS (−) was removed by an aspirator, thereto was added 2 ml of a mixed solution obtained by mixing 1 ml of the ALA solution and 1 ml of the light scattering particle solution, and the system was cultured under conditions of 3TC and 5 v/v % CO2 for 2 hours. Then, the mixed solution of the cells on the 6-well plate was removed by an aspirator, thereto was added 2 ml of HBSS (−) (Thermo Fisher Scientific) to wash the residue, HBSS (−) was removed again by an aspirator, to the residue was added 2 ml of HBSS (−), and the solution was used for detection.
Detection of fluorescence was performed in the same manner as in Example 4 by using an inverted fluorescence microscope and, from the images acquired, fluorescence intensities were obtained and relative fluorescence intensities were calculated.

DLD-1 colon cancer cells = assay: Fluorescence enhancement in DLD-1 cells by separate administration of fluorescent dye (ALA) and particles, fluorescence microscope; details: Example 6, ALA 2 mmol/l, particles 0.001 w/v %, immediately after observation light irradiation
Procedure: DLD-1 cells (DLD-1, JCRB9094) were prepared. This cell line was subcultured in an RPMI-1640 medium (RPMI-1640 medium (Life Technologies), 10 v/v % FBS (Life Technologies)). The cultured cells which reached a logarithmic growth phase 3 days or 4 days later were peeled off with Trypsin/EDTA (Thermo Fisher Scientific) and, after the reaction was terminated in an RPMI-1640 medium, centrifuged. The cell pellet obtained was suspended in an RPMI-1640 medium. The cell suspension was subjected to measurement of cell density, inoculated onto a 6-well plate at a density of 2.9×10^5 cells/2 ml/well, and cultured for 1 day.
An aqueous ALA solution (50 mmol/l) was mixed into an RPMI-1640 medium (Life Technologies) to form a 2 mmol/l ALA solution. […]
Evaluation was performed as follows. The medium of the DLD-1 cells on a 6-well plate, obtained in Example 3, was removed by an aspirator, and evaluation thereof was performed under conditions where PBS (−) and HBSS (−) in Example 4 were changed to RPMI-1640 medium and RPMI-1640 medium (no glutamine and no phenol red (Thermo Fisher Scientific), respectively, and the solution was used for detection of fluorescence.
Detection of fluorescence was performed in the same manner as in Example 5 by using an inverted fluorescence microscope and, from the acquired images, fluorescence intensities were obtained and relative fluorescence intensities were calculated.

[2] = test system: T24 urinary bladder cancer cells; assay: Co-culture in the same visual field, fluorescence of T24 cell region; details: Example 11, T24 cell line, ALA 2 mmol/l, particles 0.001 w/v %
Source text: Co-culture pertaining to the present example for having the tumor cells and the immortalized normal cells exist in the same visual field will be described with reference to FIGS. 1A and 1B. For the co-culture, there was used CytoSelect™ 24-Well Cell Co-Culture System (manufactured by COSMO BIO). The T24 cell line was subcultured in an MEM medium (MEM, GlutaMAX™ supplement (Thermo Fisher Scientific), 10 v/v % FBS (Thermo Fisher Scientific)). The cultured cells which reached a logarithmic growth phase 3 days or 4 days later were peeled off with Trypsin/EDTA (Thermo Fisher Scientific) and, after the reaction was terminated in an MEM medium, centrifuged. The cell pellet obtained was suspended in an MEM medium. The cell suspension was subjected to measurement of cell density and inoculated onto a well at a density of 4.4×10^4 cells/0.225 ml/well, the well having an insert 2 of an 8 mm diameter disposed for preparing a cell-free region therein, and cultured for 2 days to form a monolayer in region 3 around the insert 2.
WI-38 cells were subcultured in an MEM medium. […]
Detection of fluorescence was performed in the same manner as in Example 4 by using an inverted fluorescence microscope (ECLIPSE Ti-E, Nikon). Images having a visual field of 3300 μm (width)×2200 μm (length) were obtained, and relative fluorescence intensities were calculated in the same manner as in Example 5.

NCC(=O)CCC(=O)O [fluorescent dye, 5-aminolevulinic acid]
Relative fluorescence intensity [1]: 1.0 | Relative fluorescence intensity (DLD-1 colon cancer cells): 1.0 | Relative fluorescence intensity [2]: 1.6
